From publication PMC10192418, “High-affinity peptides developed against calprotectin and their application as synthetic ligands in diagnostic assays” (Nature Communications, 2023)
Numbered stars: 1 amine (or outer) side, 2 acyl side, 3 side chain; on linkers, the order of the positions; unused ones are H or OH. Bridge positions count the residues as written; N and C are the ends. Peptide text beside a SMILES is read from it. * marks the point of attachment. X1 = O=C(O)c1cc(C(=O)*)ccc1-c1c2ccc(=O)cc-2oc2cc(O)ccc12; CH2COCH2 = O=C(C[*:1])C[*:2]

Assays:
[1] = biological target: T1, calprotectin tetramer (recombinant B-RCAL, His6-linker-S100A9-linker-S100A8) (Homo sapiens, UniProt P05109); experiment: Fluorescence polarization (FP) binding to recombinant calprotectin B-RCAL tetramer in presence of CaCl2; settings: FP, 2 mM CaCl2
T1 construct: we used the recombinant protein without removing the His-tag or cleaving the 8-amino acid linker between the two proteins; co-authors' company
T1 sequence (P05109 with tags, fused parts or gaps): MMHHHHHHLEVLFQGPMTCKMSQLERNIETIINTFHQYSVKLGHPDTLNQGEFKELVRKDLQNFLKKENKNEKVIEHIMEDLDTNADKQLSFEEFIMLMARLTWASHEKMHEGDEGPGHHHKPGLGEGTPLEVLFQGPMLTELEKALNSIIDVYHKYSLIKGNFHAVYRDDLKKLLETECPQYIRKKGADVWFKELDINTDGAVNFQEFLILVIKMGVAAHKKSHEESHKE
Procedure: Calprotectin was serially diluted in 20 mM HEPES, 100 mM NaCl, 2 mM CaCl2, pH 7.5, and 1 mM DTT with 0.01% (v/v) Tween-20. Volumes of 16 μL of protein were added to 4 μL of fluorescent peptide (20 nM final concentration) in black 384-well microtiter plates. Fluorescence anisotropy was measured on a microwell plate reader (Infinite M200Pro, Tecan) with filters for excitation at 485 nm and emission at 535 nm. The dissociation constant (Kd) was calculated using a following Eq. (1) using Prism 5 software (GraphPad):1 A=Af+Ab−Af×LT+KD+PT−LT+KD+PT^2−4LTPT/2LT where A is anisotropy, Af and Ab are the anisotropy values for free and bound ligands, respectively. [L]T is the concentration of the total fluorescent ligand and [P]T the concentration of the protein.

[2] = Methionine oxidation of peptide upon storage in solution; type: physicochemical

CSCC[C@H](NC(=O)[C@@H]1CCCN1C(=O)[C@H](Cc1ccccc1)NC(=O)[C@H](C)NC(=O)[C@@H](NC(=O)[C@@H]1CSCC(=O)CSC[C@H](NC(=O)[C@H](CCCNC(=N)N)NC(=O)c2ccc(-c3c4ccc(=O)cc-4oc4cc(O)ccc34)c(C(=O)O)c2)C(=O)N2CCC[C@H]2C(=O)N[C@@H](CCC(=O)O)C(=O)N1)C(C)C)C(=O)N[C@@H](Cc1ccccc1)C(=O)N[C@@H](CCC(N)=O)C(=O)N[C@H]1CSCC(=O)CSC[C@@H](C(=O)NCC(N)=O)NC(=O)[C@H](Cc2ccc(O)cc2)NC(=O)[C@H](Cc2c[nH]c3ccccc23)NC(=O)[C@H](Cc2c[nH]cn2)NC1=O [Peptide 3] (X1-RCPECVAFPMFQCHWYCG-NH2; linker 2-5, 13-17 via CH2COCH2)
Kd ([1]; 20 nM peptide, Rep 1): 20 nM | FP increase upon binding to calprotectin [1]: around 50% | oxidation upon storage in solution [2]: a small quantity was oxidized
